Like-named read-outs stand apart in the source and are kept apart here.
Tests used:
[1] = system: T1, trypsin; test: fluorometric protease assay, Z-Gly-Gly-Arg-AMC; format: biochemical, Homo sapiens; conditions: […] Tris-HCl, […] NaCl pH […] °C; read-out: IC50 ± SD (μM) / Trypsin
T1 construct: gene PRSS1; enzyme from human pancreas
Excerpt: fluorometric protease assay, Z-Gly-Gly-Arg-AMC on trypsin

[2] = molecular target: T2, urokinase (Homo sapiens, UniProt P00749); test: fluorometric protease assay, Z-Gly-Gly-Arg-AMC; format: biochemical; conditions: read-out: IC50 ± SD (μM) / Urokinase
T2 construct: gene PLAU; isolated enzyme; source not clearly stated
Excerpt: fluorometric protease assay, Z-Gly-Gly-Arg-AMC on urokinase

[3] = molecular target: T3, Human neutrophil elastase (HNE) (Homo sapiens, UniProt P08246); test: fluorometric protease assay, MeO-Suc-Ala-Ala-Pro-Val-AMC; format: biochemical
T3 construct: gene ELANE; isolated enzyme, single polypeptide chain
T3 sequence (P08246 30-247): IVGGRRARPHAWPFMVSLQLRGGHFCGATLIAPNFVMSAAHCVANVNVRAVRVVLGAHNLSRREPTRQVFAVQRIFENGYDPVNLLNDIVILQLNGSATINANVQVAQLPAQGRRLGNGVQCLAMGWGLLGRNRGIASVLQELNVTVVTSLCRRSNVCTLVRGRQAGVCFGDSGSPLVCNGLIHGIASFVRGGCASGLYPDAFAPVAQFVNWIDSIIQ
Excerpt: fluorometric protease assay, MeO-Suc-Ala-Ala-Pro-Val-AMC on Human neutrophil elastase (HNE)

[4] = system: T4, chymotrypsin; test: fluorometric protease assay, Suc-Ala-Ala-Pro-Phe-AMC; format: biochemical, Homo sapiens; conditions: […] Tris-HCl, […] NaCl pH […] °C; read-out: IC50 ± SD (μM) / Chymotrypsin
T4 construct: gene CTRB1; enzyme from human pancreas
Excerpt: fluorometric protease assay, Suc-Ala-Ala-Pro-Phe-AMC on chymotrypsin

[5] = system: T5, kallikrein; test: fluorometric protease assay, H-Pro-Phe-Arg-AMC; format: biochemical, Homo sapiens; conditions: […] Tris-HCl, […] NaCl pH […] °C; read-out: IC50 ± SD (μM) / Kallikrein
T5 construct: gene KLKB1
Excerpt: fluorometric protease assay, H-Pro-Phe-Arg-AMC on kallikrein

IC50 [1] [µM]	IC50 [2] [µM]	IC50 ([3]; read-out: IC50 ± SD) [nM]	IC50 [4] [µM]	IC50 [5] [µM]	IC50 ([3]; read-out: IC50 ± SD (nM) / HNE) [nM]	Structure (SMILES)
> 1	> 2			> 5	0.85 ± 0.1	CCC1(CC)C(=O)N(c2ccc(CSc3nc4cc(C(=O)NCCCNc5ccc([N+](=O)[O-])c6nonc56)ccc4o3)cc2)C1=O [compound 16, 2-((4-(3,3-diethyl-2,4-dioxoazetidin-1-yl)benzyl)thio)-N-(3-((7nitrobenzo[c][1,2,5]oxadiazol-4-yl)amino)propyl)benzo[d]oxazole-5-carboxamide]
> 1	> 2		> 0.5	> 3	0.64 ± 0.03	CCC1(CC)C(=O)N(c2ccc(C(=O)NCCCNc3ccc([N+](=O)[O-])c4nonc34)cc2)C1=O [compound 17]

The remaining lines, values behind:

Structure (SMILES)	IC50 [1] [µM]	IC50 [2] [µM]	IC50 ([3]; read-out: IC50 ± SD) [nM]	IC50 [4] [µM]	IC50 [5] [µM]	IC50 ([3]; read-out: IC50 ± SD (nM) / HNE) [nM]
CCC1(CC)C(=O)N(c2ccc(COc3ccc4ccc(=O)oc4c3)cc2)C1=O [compound 1, 3,3-diethyl-1-(4-(((2-oxo-2H-chromen-7-yl)oxy)methyl)phenyl)-azetidine-2,4-dione]	> 1	> 50	0.42 ± 0.09	> 8		
CCC1(CC)C(=O)N(c2ccc(CBr)cc2)C1=O [compound 6]			0.64 ± 0.03			
CCC1(CC)C(=O)N(c2ccc(C(=O)OCc3ccccc3)cc2)C1=O [compound 8]			0.96 ± 0.13			
CCC1(CC)C(=O)N(c2ccc(C(=O)O)cc2)C1=O [compound 9]			14.7 ± 5.55			

Reference: paper PMC7238052, “Novel and Modified Neutrophil Elastase Inhibitor Loaded in Topical Formulations for Psoriasis Management” (Pharmaceutics, 2020)
